Tested on: T24 bladder cancer cell lines
Experiment: StaRT-PCR gene expression, SC23
Format: cell-based, human
Protocol: FIG. 21 illustrates RT-PCR gene expression analysis. Total RNA form T24 cells was isolated and cDNA was synthesized with 2.5 ug of total RNA. Standardized RT-PCR was performed with GENE system I gene expression kit (Gene Express Inc.). Each kit contains a mixture of the internal competitive templates and the corresponding primers.
Total RNA form T24 cells were isolated after 3h, Oh, 12h, 24h, and 48h exposure to SC23.
StaRT-PCR™ (Standardized Reverse Transcription Polymerase Chain Reaction). First described by Willey et al. ((2004) Methods Mol. Biol. 258:13-41), this technique uses standardized mixtures of competitive templates (CT) as internal standards in generating valid and reproducible numerical gene expression data for multiple genes. After the mRNA was converted to cDNA, the cDNA was mixed with a proprietary Standardized Mixture of Internal Standards™ (SMIS™, GeneExpress, Inc.). In the standard mixture, there is an internal standard CT for each gene to be measured as well as one for a reference gene. (i.e., β-actin, GAPDH). The amplicons produced by StaRT-PCR™ was then separated on capillary electrophoresis. The amount of internal standard CT or NT amplimer was determined by measuring each peak area. All data were then reported as number of molecules of mRNA for gene of interest per 10^6 molecules of reference gene (normalizer gene). Serial dilutions of the SMIS™ allow quantitative measurements over 7 log range of gene expression observed in cells from <10 to 10^7 molecules/10^6 molecules reference gene. Data presented in Table 8 are number of copies that have been normalized against 10^6 molecule of β-actin.

In the case of `O=C(NNC(O)c1cc2ccccc2cc1O)c1cc2ccccc2cc1O` (stereo not drawn) [SC23], the BCL2L1 expression (3 hours) is reported as 9449.42 molecules/10^6 β-actin, the BCL2 expression (3 hours) is reported as 152.37 molecules/10^6 β-actin and the CASP1 expression (3 hours) is reported as 68.36 molecules/10^6 β-actin. For the same compound, the CCNA2 expression (3 hours) was 126.84 molecules/10^6 β-actin, the CCND3 expression (3 hours) was 195.17 molecules/10^6 β-actin and the CCNE1 expression (3 hours) was 51.36 molecules/10^6 β-actin. It also gave a CCNG1 expression (3 hours) of 2956.79 molecules/10^6 β-actin, a CDC2 expression (3 hours) of 2365.6 molecules/10^6 β-actin and a CDC25C expression (3 hours) of 394.83 molecules/10^6 β-actin. It also gave a CDK7 expression (3 hours) of 1068.25 molecules/10^6 β-actin, a CDK8 expression (3 hours) of 412.64 molecules/10^6 β-actin and a CDKN1A expression (3 hours) of 11.42 molecules/10^6 β-actin. The CDKN1B expression (3 hours) was 72.37 molecules/10^6 β-actin, the CDKN2A expression (3 hours) was 415.63 molecules/10^6 β-actin and the CDKN2C expression (3 hours) was 458.41 molecules/10^6 β-actin. The CYP1A2 expression (3 hours) was 59.45 molecules/10^6 β-actin, the DAP expression (3 hours) was 9037.57 molecules/10^6 β-actin and the E2F4 expression (3 hours) was 7540.97 molecules/10^6 β-actin. For the same compound, the E2F5 expression (3 hours) was 268.09 molecules/10^6 β-actin, the JUN expression (3 hours) was 1846.15 molecules/10^6 β-actin and the MAD expression (3 hours) was 496.75 molecules/10^6 β-actin. It also gave an MAP3K14 expression (3 hours) of 55.57 molecules/10^6 β-actin, an MYC expression (3 hours) of 974.69 molecules/10^6 β-actin and an NFKB1 expression (3 hours) of 2694.24 molecules/10^6 β-actin. For the same compound, the PCNA expression (3 hours) was 8574.58 molecules/10^6 β-actin, the PTGS2 expression (3 hours) was 82.69 molecules/10^6 β-actin and the RB1 expression (3 hours) was 7076.29 molecules/10^6 β-actin. It also gave an RBL2 expression (3 hours) of 1287.91 molecules/10^6 β-actin, a TGFBR2 expression (3 hours) of 1420.02 molecules/10^6 β-actin and a TGIF expression (3 hours) of 3112.84 molecules/10^6 β-actin. For the same compound, the TNFAIP1 expression (3 hours) was 4737.75 molecules/10^6 β-actin, the TNFRSF1A expression (3 hours) was 15.56 molecules/10^6 β-actin and the TNFSF10 expression (3 hours) was 82.86 molecules/10^6 β-actin. The TP53 expression (3 hours) was 567.53 molecules/10^6 β-actin, the TRAF4 expression (3 hours) was 69.06 molecules/10^6 β-actin and the BCL2L1 expression (6 hours) was 10428.62 molecules/10^6 β-actin. For the same compound, the BCL2 expression (6 hours) was 121.2 molecules/10^6 β-actin, the CASP1 expression (6 hours) was 80.87 molecules/10^6 β-actin and the CCNA2 expression (6 hours) was 348.88 molecules/10^6 β-actin. It also gave a CCND3 expression (6 hours) of 175.1 molecules/10^6 β-actin, a CCNE1 expression (6 hours) of 33.08 molecules/10^6 β-actin and a CCNG1 expression (6 hours) of 6161.69 molecules/10^6 β-actin. The CDC2 expression (6 hours) was 1650.84 molecules/10^6 β-actin, the CDC25C expression (6 hours) was 606.06 molecules/10^6 β-actin and the CDK7 expression (6 hours) was 778.75 molecules/10^6 β-actin. For the same compound, the CDK8 expression (6 hours) was 354.76 molecules/10^6 β-actin, the CDKN1A expression (6 hours) was 27.06 molecules/10^6 β-actin and the CDKN1B expression (6 hours) was 390.76 molecules/10^6 β-actin. It also gave a CDKN2A expression (6 hours) of 5611.87 molecules/10^6 β-actin, a CDKN2C expression (6 hours) of 781.31 molecules/10^6 β-actin and a CYP1A2 expression (6 hours) of 10 molecules/10^6 β-actin. For the same compound, the DAP expression (6 hours) was 12572.87 molecules/10^6 β-actin, the E2F4 expression (6 hours) was 1285.78 molecules/10^6 β-actin and the E2F5 expression (6 hours) was 243.27 molecules/10^6 β-actin. The JUN expression (6 hours) was 4168.04 molecules/10^6 β-actin, the MAD expression (6 hours) was 763.05 molecules/10^6 β-actin and the MAP3K14 expression (6 hours) was 68.69 molecules/10^6 β-actin. It also gave an MYC expression (6 hours) of 2650.11 molecules/10^6 β-actin, an NFKB1 expression (6 hours) of 3274.07 molecules/10^6 β-actin and a PCNA expression (6 hours) of 6433.1 molecules/10^6 β-actin. The PTGS2 expression (6 hours) was 157.43 molecules/10^6 β-actin, the RB1 expression (6 hours) was 5973.3 molecules/10^6 β-actin and the RBL2 expression (6 hours) was 2112.09 molecules/10^6 β-actin. For the same compound, the TGFBR2 expression (6 hours) was 2582.67 molecules/10^6 β-actin, the TGIF expression (6 hours) was 8002.87 molecules/10^6 β-actin and the TNFAIP1 expression (6 hours) was 7127.73 molecules/10^6 β-actin. For the same compound, the TNFRSF1A expression (6 hours) was 20.58 molecules/10^6 β-actin, the TNFSF10 expression (6 hours) was 532.07 molecules/10^6 β-actin and the TP53 expression (6 hours) was 1005.63 molecules/10^6 β-actin. It also gave a TRAF4 expression (6 hours) of 91.86 molecules/10^6 β-actin, a BCL2L1 expression (12 hours) of 23160.22 molecules/10^6 β-actin and a BCL2 expression (12 hours) of 122.24 molecules/10^6 β-actin. It also gave a CASP1 expression (12 hours) of 113.28 molecules/10^6 β-actin, a CCNA2 expression (12 hours) of 211.27 molecules/10^6 β-actin and a CCND3 expression (12 hours) of 137.33 molecules/10^6 β-actin. The CCNE1 expression (12 hours) was 48.10 molecules/10^6 β-actin, the CCNG1 expression (12 hours) was 9794.14 molecules/10^6 β-actin and the CDC2 expression (12 hours) was 1566.64 molecules/10^6 β-actin. For the same compound, the CDC25C expression (12 hours) was 779.22 molecules/10^6 β-actin, the CDK7 expression (12 hours) was 2551.62 molecules/10^6 β-actin and the CDK8 expression (12 hours) was 605.61 molecules/10^6 β-actin. The CDKN1A expression (12 hours) was 129.69 molecules/10^6 β-actin, the CDKN1B expression (12 hours) was 310.81 molecules/10^6 β-actin and the CDKN2A expression (12 hours) was 403.27 molecules/10^6 β-actin. It also gave a CDKN2C expression (12 hours) of 770.42 molecules/10^6 β-actin, a CYP1A2 expression (12 hours) of 69 molecules/10^6 β-actin and a DAP expression (12 hours) of 38087.74 molecules/10^6 β-actin.
